Among the data in ChEMBL document CHEMBL3774313, “Natural product-based design, synthesis and biological evaluation of Albiziabioside A derivatives that selectively induce HCT116 cell death” (Eur J Med Chem, 2016) are IC50 values, retold here.

Molecules are shown by their SMILES.

What all share (format): functional, cell-based
A short description of experiment [1]: Antiproliferative activity against human HL60 cells assessed as cell viability after 72 hrs by MTT assay. The note with it: HL-60, 72 h.
A further experiment concerns HepG2. Kind of experiment: Antiproliferative activity against human HepG2 cells assessed as cell viability after 72 hrs by MTT assay. Conditions: HepG2, 72 h.
A further experiment concerns A549. Kind of experiment: Antiproliferative activity against human A549 cells assessed as cell viability after 72 hrs by MTT assay. The note with it: A549, 72 h.
Experiment [2] is described as follows: Antiproliferative activity against human HCT116 cells assessed as cell viability after 72 hrs by MTT assay. The note with it: HCT-116, 72 h.
Another experiment has as its system HeLa. Kind of experiment: Antiproliferative activity against human HeLa cells assessed as cell viability after 72 hrs by MTT assay.
In a further experiment the test system is MCF7. Description: Antiproliferative activity against human MCF7 cells assessed as cell viability after 72 hrs by MTT assay. Conditions: MCF7, 72 h.

For the molecule `CC(=O)N[C@H]1[C@H](O[C@H]2CC[C@]3(C)[C@H]4CC=C5[C@@H]6CC(C)(C)CC[C@]6(C(=O)O)CC[C@@]5(C)[C@]4(C)CC[C@H]3C2(C)C)O[C@H](CO[C@@H]2OC[C@H](O)[C@H](O)[C@H]2O)[C@@H](O)[C@@H]1O`, the IC50 in experiment [1] came to 9.92 µM; in the experiment with HepG2, 10.3 µM; in the experiment on A549 it was 5.27 µM; in experiment [2], 16 µM; in the experiment with HeLa, 5.27 µM; in the experiment on MCF7 it was 9.34 µM.

`CC1(C)CC[C@]2(C(=O)O)CC[C@]3(C)C(=CC[C@@H]4[C@@]5(C)CC[C@H](O[C@@H]6O[C@H](CO[C@@H]7OC[C@H](O)[C@H](O)[C@H]7O)[C@@H](O)[C@H](O)[C@H]6NC(=O)/C=C/c6cccc(F)c6)C(C)(C)[C@@H]5CC[C@]43C)[C@@H]2C1`: the IC50 in experiment [1] was above 50 µM; in the experiment with HepG2, above 50 µM; in the experiment on A549, 32.8 µM; in experiment [2], 8.5 µM; in the experiment on HeLa, 48.4 µM; in the experiment with MCF7, above 50 µM.

For the molecule `COc1cc(/C=C/C(=O)N[C@H]2[C@H](O[C@H]3CC[C@]4(C)[C@H]5CC=C6[C@@H]7CC(C)(C)CC[C@]7(C(=O)O)CC[C@@]6(C)[C@]5(C)CC[C@H]4C3(C)C)O[C@H](CO[C@@H]3OC[C@H](O)[C@H](O)[C@H]3O)[C@@H](O)[C@@H]2O)cc(OC)c1`, the IC50 (in experiment [1]; in the experiment on HepG2; in the experiment on A549; in experiment [2]; with HeLa; with MCF7) was above 50 µM each time.

As to `COc1ccc(/C=C/C(=O)N[C@H]2[C@H](O[C@H]3CC[C@]4(C)[C@H]5CC=C6[C@@H]7CC(C)(C)CC[C@]7(C(=O)O)CC[C@@]6(C)[C@]5(C)CC[C@H]4C3(C)C)O[C@H](CO[C@@H]3OC[C@H](O)[C@H](O)[C@H]3O)[C@@H](O)[C@@H]2O)cc1OC`, the IC50 (in experiment [1]; in the experiment on HepG2; in the experiment with A549; in experiment [2]; in the experiment on HeLa; in the experiment with MCF7) was above 50 µM in each case.

With `COc1cccc(/C=C/C(=O)N[C@H]2[C@H](O[C@H]3CC[C@]4(C)[C@H]5CC=C6[C@@H]7CC(C)(C)CC[C@]7(C(=O)O)CC[C@@]6(C)[C@]5(C)CC[C@H]4C3(C)C)O[C@H](CO[C@@H]3OC[C@H](O)[C@H](O)[C@H]3O)[C@@H](O)[C@@H]2O)c1OC`, the IC50 (in experiment [1]; in the experiment with HepG2; in the experiment with A549; in experiment [2]; in the experiment on HeLa; in the experiment with MCF7) was above 50 µM in each case.

With `CC1(C)CC[C@]2(C(=O)O)CC[C@]3(C)C(=CC[C@@H]4[C@@]5(C)CC[C@H](O[C@@H]6O[C@H](CO[C@@H]7OC[C@H](O)[C@H](O)[C@H]7O)[C@@H](O)[C@H](O)[C@H]6NC(=O)/C=C/c6ccc(Cl)cc6)C(C)(C)[C@@H]5CC[C@]43C)[C@@H]2C1`, the IC50 (in experiment [1]; in the experiment with HepG2; in the experiment on A549; in experiment [2]; in the experiment on HeLa; with MCF7) was above 50 µM in each case.

As to `CC1(C)CC[C@]2(C(=O)O)CC[C@]3(C)C(=CC[C@@H]4[C@@]5(C)CC[C@H](O[C@@H]6O[C@H](CO[C@@H]7OC[C@H](O)[C@H](O)[C@H]7O)[C@@H](O)[C@H](O)[C@H]6NC(=O)/C=C/c6ccc(OCc7ccccc7)cc6)C(C)(C)[C@@H]5CC[C@]43C)[C@@H]2C1`, the IC50 in experiment [1] was above 50 µM; in the experiment with HepG2 it was above 50 µM; with A549, above 50 µM; in experiment [2] it was 23.8 µM; in the experiment with HeLa, above 50 µM; in the experiment with MCF7, above 50 µM.

For the molecule `CC1(C)CC[C@]2(C(=O)O)CC[C@]3(C)C(=CC[C@@H]4[C@@]5(C)CC[C@H](O[C@@H]6O[C@H](CO[C@@H]7OC[C@H](O)[C@H](O)[C@H]7O)[C@@H](O)[C@H](O)[C@H]6NC(=O)/C=C/c6ccc(C(C)(C)C)cc6)C(C)(C)[C@@H]5CC[C@]43C)[C@@H]2C1`, the IC50 in experiment [1] was above 50 µM; in the experiment on HepG2, above 50 µM; in the experiment with A549, above 50 µM; in experiment [2], 13.6 µM; in the experiment with HeLa, 39.2 µM; in the experiment on MCF7 it was above 50 µM.

As for `COc1ccc(OC)c(/C=C/C(=O)N[C@H]2[C@H](O[C@H]3CC[C@]4(C)[C@H]5CC=C6[C@@H]7CC(C)(C)CC[C@]7(C(=O)O)CC[C@@]6(C)[C@]5(C)CC[C@H]4C3(C)C)O[C@H](CO[C@@H]3OC[C@H](O)[C@H](O)[C@H]3O)[C@@H](O)[C@@H]2O)c1`, the IC50 (in experiment [1]; in the experiment with HepG2; with A549; in experiment [2]; with HeLa; in the experiment on MCF7) was above 50 µM in each case.

`CC1(C)CC[C@]2(C(=O)O)CC[C@]3(C)C(=CC[C@@H]4[C@@]5(C)CC[C@H](O[C@@H]6O[C@H](CO[C@@H]7OC[C@H](O)[C@H](O)[C@H]7O)[C@@H](O)[C@H](O)[C@H]6NC(=O)/C=C/c6ccc(F)cc6)C(C)(C)[C@@H]5CC[C@]43C)[C@@H]2C1`: the IC50 in experiment [1] is above 50 µM; with HepG2 it was above 50 µM; in the experiment on A549, above 50 µM; in experiment [2], 37.5 µM; with HeLa it was above 50 µM; with MCF7 it was above 50 µM.

For `O=c1[nH]cc(F)c(=O)[nH]1` [FLUOROURACIL], the IC50 in experiment [1] is 27.4 µM; in the experiment with HepG2, 49 µM; with A549, above 50 µM; in experiment [2], 38.3 µM; with HeLa, 26.2 µM; with MCF7, 26.1 µM.

In the case of `CC1(C)CC[C@]2(C(=O)O)CC[C@]3(C)C(=CC[C@@H]4[C@@]5(C)CC[C@H](O[C@@H]6O[C@H](CO[C@@H]7OC[C@H](O)[C@H](O)[C@H]7O)[C@@H](O)[C@H](O)[C@H]6NC(=O)/C=C/c6ccccc6)C(C)(C)[C@@H]5CC[C@]43C)[C@@H]2C1`, the IC50 in experiment [1] was above 50 µM; with HepG2, above 50 µM; with A549, above 50 µM; in experiment [2], 19.3 µM; in the experiment on HeLa, 40.2 µM; in the experiment on MCF7, 45.2 µM.

For `Cc1ccc(/C=C/C(=O)N[C@H]2[C@H](O[C@H]3CC[C@]4(C)[C@H]5CC=C6[C@@H]7CC(C)(C)CC[C@]7(C(=O)O)CC[C@@]6(C)[C@]5(C)CC[C@H]4C3(C)C)O[C@H](CO[C@@H]3OC[C@H](O)[C@H](O)[C@H]3O)[C@@H](O)[C@@H]2O)cc1`, the IC50 in experiment [1] was above 50 µM; in the experiment on HepG2 it was above 50 µM; in the experiment with A549 it was above 50 µM; in experiment [2], 16.3 µM; in the experiment on HeLa, above 50 µM; in the experiment with MCF7 it was 38.1 µM.

For `CC1(C)CC[C@]2(C(=O)O)CC[C@]3(C)C(=CC[C@@H]4[C@@]5(C)CC[C@H](O[C@@H]6O[C@H](CO[C@@H]7OC[C@H](O)[C@H](O)[C@H]7O)[C@@H](O)[C@H](O)[C@H]6NC(=O)/C=C/c6cccc(Br)c6)C(C)(C)[C@@H]5CC[C@]43C)[C@@H]2C1`, the IC50 was above 50 µM in experiment [1]; above 50 µM in the experiment on HepG2; above 50 µM with A549; 10.2 µM in experiment [2]; above 50 µM in the experiment with HeLa; above 50 µM in the experiment on MCF7.

Take `CC1(C)CC[C@]2(C(=O)O)CC[C@]3(C)C(=CC[C@@H]4[C@@]5(C)CC[C@H](O[C@@H]6O[C@H](CO[C@@H]7OC[C@H](O)[C@H](O)[C@H]7O)[C@@H](O)[C@H](O)[C@H]6NC(=O)/C=C/c6ccc(Br)cc6)C(C)(C)[C@@H]5CC[C@]43C)[C@@H]2C1`: the IC50 is above 50 µM in experiment [1]; above 50 µM with HepG2; above 50 µM with A549; 33.2 µM in experiment [2]; above 50 µM in the experiment with HeLa; above 50 µM in the experiment with MCF7.

Consider `CCOc1ccc(/C=C/C(=O)N[C@H]2[C@H](O[C@H]3CC[C@]4(C)[C@H]5CC=C6[C@@H]7CC(C)(C)CC[C@]7(C(=O)O)CC[C@@]6(C)[C@]5(C)CC[C@H]4C3(C)C)O[C@H](CO[C@@H]3OC[C@H](O)[C@H](O)[C@H]3O)[C@@H](O)[C@@H]2O)cc1`, for which the IC50 in experiment [1] is above 50 µM; with HepG2 it was above 50 µM; in the experiment with A549, above 50 µM; in experiment [2], 13 µM; with HeLa, above 50 µM; with MCF7 it was above 50 µM.

For the molecule `Cc1cccc(/C=C/C(=O)N[C@H]2[C@H](O[C@H]3CC[C@]4(C)[C@H]5CC=C6[C@@H]7CC(C)(C)CC[C@]7(C(=O)O)CC[C@@]6(C)[C@]5(C)CC[C@H]4C3(C)C)O[C@H](CO[C@@H]3OC[C@H](O)[C@H](O)[C@H]3O)[C@@H](O)[C@@H]2O)c1`, the IC50 (in experiment [1]; in the experiment on HepG2; in the experiment with A549; in experiment [2]; in the experiment on HeLa; with MCF7) was above 50 µM each time.

Regarding `COc1ccccc1/C=C/C(=O)N[C@H]1[C@H](O[C@H]2CC[C@]3(C)[C@H]4CC=C5[C@@H]6CC(C)(C)CC[C@]6(C(=O)O)CC[C@@]5(C)[C@]4(C)CC[C@H]3C2(C)C)O[C@H](CO[C@@H]2OC[C@H](O)[C@H](O)[C@H]2O)[C@@H](O)[C@@H]1O`, the IC50 (in experiment [1]; in the experiment with HepG2; with A549; in experiment [2]; in the experiment with HeLa; with MCF7) was above 50 µM each time.

`CC1(C)CC[C@]2(C(=O)O)CC[C@]3(C)C(=CC[C@@H]4[C@@]5(C)CC[C@H](O[C@@H]6O[C@H](CO[C@@H]7OC[C@H](O)[C@H](O)[C@H]7O)[C@@H](O)[C@H](O)[C@H]6NC(=O)/C=C/c6cccc(Cl)c6)C(C)(C)[C@@H]5CC[C@]43C)[C@@H]2C1`: the IC50 in experiment [1] is above 50 µM; in the experiment on HepG2, above 50 µM; in the experiment with A549 it was above 50 µM; in experiment [2], 11.9 µM; in the experiment on HeLa it was above 50 µM; with MCF7, above 50 µM.
